Measurements: article PMC411064 (BMC Medicine, 2004)
“And” between values parts separate entries of the source, which are not always exact repeats. Identical values can stand only once. Like-named read-outs stand apart in the source and are kept apart here. Marks after values point to notes of the source that are not given here.

Columns and labels:
[1] = cited from earlier work; for observed variability in the area under the curve: oral
Caco-2 cells [2] = test: Inhibition of CPT efflux; type: in vitro ADME, human; settings: for decrease of CPT secretory permeability in the presence of inhibitor: BL to AP
[3] = tested on: CC[C@@]1(O)C(=O)OCc2c1cc1n(c2=O)Cc2cc3ccccc3nc2-1; test: CPT directional transport across MDCK II/PGP cell monolayers; type: in vitro ADME, human; settings: other: MDCK II/PGP, 37.0 °C
[4] = type: in vitro ADME; settings: rat intestinal and liver s9 fractions and microsomes; data not shown
[5] = molecular target: human multidrug resistance protein 2 (MRP2) (ABCC2) (Homo sapiens, UniProt Q92887); test: CPT directional transport across MDCK II/MRP2 cell monolayers; type: in vitro ADME
Caco-2 cells [6] = test: CPT directional transport across Caco-2 cell monolayers; type: in vitro ADME, human
[7] = CPT directional transport across MDCK II/wt cell monolayers; type: in vitro ADME, dog; settings: dog, MDCK, pH 7.4
MDCK II/wt cells = test: as above; type: in vitro ADME, dog; settings: MDCK II/wt
[8] = molecular target: human P-glycoprotein (PGP) (ABCB1) (Homo sapiens, UniProt P08183); test: CPT directional transport across MDCK II/PGP cell monolayers; type: in vitro ADME
Chain of human P-glycoprotein (PGP) (ABCB1) (P08183 whole entry): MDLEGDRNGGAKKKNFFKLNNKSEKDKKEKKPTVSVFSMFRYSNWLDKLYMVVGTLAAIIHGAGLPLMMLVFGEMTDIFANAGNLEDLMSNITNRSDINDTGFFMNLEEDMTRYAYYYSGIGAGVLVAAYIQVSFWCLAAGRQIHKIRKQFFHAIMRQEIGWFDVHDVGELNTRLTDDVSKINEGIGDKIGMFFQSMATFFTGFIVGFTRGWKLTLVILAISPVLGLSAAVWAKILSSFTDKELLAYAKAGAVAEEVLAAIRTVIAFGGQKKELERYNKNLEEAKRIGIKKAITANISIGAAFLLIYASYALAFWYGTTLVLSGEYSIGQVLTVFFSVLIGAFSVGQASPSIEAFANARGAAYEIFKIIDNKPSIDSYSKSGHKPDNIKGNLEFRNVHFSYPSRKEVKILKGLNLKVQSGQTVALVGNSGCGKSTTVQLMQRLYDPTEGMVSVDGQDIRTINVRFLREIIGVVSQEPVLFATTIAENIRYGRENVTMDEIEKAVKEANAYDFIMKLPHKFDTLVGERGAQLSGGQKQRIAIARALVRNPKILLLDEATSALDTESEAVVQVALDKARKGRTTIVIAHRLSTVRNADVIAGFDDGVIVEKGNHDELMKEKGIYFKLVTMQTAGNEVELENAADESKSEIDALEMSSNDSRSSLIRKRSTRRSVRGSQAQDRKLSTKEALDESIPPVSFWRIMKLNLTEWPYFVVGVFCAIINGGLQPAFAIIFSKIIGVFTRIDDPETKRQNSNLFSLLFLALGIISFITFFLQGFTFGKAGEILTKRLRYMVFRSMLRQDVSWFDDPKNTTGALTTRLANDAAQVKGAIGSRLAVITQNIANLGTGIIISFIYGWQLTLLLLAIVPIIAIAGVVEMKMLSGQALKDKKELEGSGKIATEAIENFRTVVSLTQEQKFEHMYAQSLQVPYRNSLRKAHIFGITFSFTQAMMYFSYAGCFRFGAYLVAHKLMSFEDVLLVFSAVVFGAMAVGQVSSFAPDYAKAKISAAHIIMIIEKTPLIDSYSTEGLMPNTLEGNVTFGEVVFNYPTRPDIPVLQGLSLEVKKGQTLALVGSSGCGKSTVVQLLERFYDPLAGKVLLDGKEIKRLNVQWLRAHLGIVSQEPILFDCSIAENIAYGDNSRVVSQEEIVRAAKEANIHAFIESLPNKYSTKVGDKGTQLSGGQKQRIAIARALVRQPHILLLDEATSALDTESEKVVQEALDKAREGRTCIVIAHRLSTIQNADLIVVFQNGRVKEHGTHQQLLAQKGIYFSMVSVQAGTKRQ

[9] = read-out: Km value of etoposide; estimated in the authors' laboratory; cited from earlier work
[10] = substrate: CC[C@@]1(O)C(=O)OCc2c1cc1n(c2=O)Cc2cc3ccccc3nc2-1; test: CPT directional transport across MDCK II/MRP2 cell monolayers; type: in vitro ADME, human; settings: other: MDCK II/MRP2, 37.0 °C
[11] = orally administered, clinical evaluation

CC[C@@]1(O)C(=O)OCc2c1cc1n(c2=O)Cc2cc3c(CN(C)C)c(O)ccc3nc2-1 [TPT, topotecan]
observed variability in the area under the curve [1]: 41%

COc1cc2c(cc1OC)CN(CCc1ccc(NC(=O)c3cccc4c(=O)c5cccc(OC)c5[nH]c34)cc1)CC2 [GF120918]
decrease of CPT secretory permeability in the presence of inhibitor (Caco-2 cells [2]): 52.5% | reduction of CPT efflux (Caco-2 cells [2]; GF120918 0.4 μM, CPT 10 μM): 2.1 fold | effect of increasing inhibitor concentration on CPT efflux (Caco-2 cells [2]; GF120918 0.8–1.2 μM, data not shown): not further reduced

CCc1c2c(nc3ccc(OC(=O)N4CCC(N5CCCCC5)CC4)cc13)-c1cc3c(c(=O)n1C2)COC(=O)[C@]3(O)CC [CPT-11, irinotecan]
observed variability in the area under the curve [1]: 50%

human P-glycoprotein (PGP) (ABCB1) (Homo sapiens)
Km ([3]; AP to BL): 69.7 ± 7.6 µM | Km ([3]; BL to AP): 36.3 ± 7.5 µM

CC[C@@]1(O)C(=O)OCc2c1cc1n(c2=O)Cc2cc3ccccc3nc2-1 [CPT, 20-(S)-camptothecin]
variability in the area under the curve [1, 11]: 164% | variability in the bioavailability [1, 11]: 10 fold | degradation on incubation [4]: Minimal degradation | Pc carrier permeability, absorptive ([5]; AP to BL): 2.5 ± 0.4 cm/s × 10^5 | Pc carrier permeability, secretory ([5]; BL to AP): 4.3 ± 0.7 cm/s × 10^5 | Pc carrier permeability, absorptive (Caco-2 cells [6]; AP to BL): 8.3 ± 0.3 cm/s × 10^5 | Pm passive permeability, absorptive (Caco-2 cells [6]; AP to BL, estimated as Peff at 4°C): 0.43 ± 0.05^a cm/s × 10^5 | Pc carrier permeability, secretory (Caco-2 cells [6]; BL to AP): 2.1 ± 0.1 cm/s × 10^5 | energy of activation (Ea) of efflux (Caco-2 cells [6]; BL to AP, Arrhenius plot, 4°C to 37°C): ~ 11.3 kcal/mole | Pm passive permeability, secretory (Caco-2 cells [6]; BL to AP, estimated as efflux Peff at 4°C): 0.35 ± 0.04^a cm/s × 10^5 | Pc for CPT secretory efflux (Caco-2 cells [6]; BL to AP, weighted nonlinear regression): 2.1 ± 0.1 × 10^-5 cm/s | Km (Caco-2 cells [6]; read-out: Km, secretory (bisolateral to apical), BL to AP, weighted nonlinear regression): 132 µM and 133 µM | efflux ratio at 105 min [7]: ~1 | Pc carrier permeability, absorptive (MDCK II/wt cells; AP to BL): 2.5 ± 0.7 cm/s × 10^5 | Pc carrier permeability, secretory (MDCK II/wt cells; BL to AP): 2.0 ± 0.2 cm/s × 10^5 | Km (MDCK II/wt cells; read-out: Km, absorptive (apical to bisolateral), AP to BL): 71.5 ± 9.7 µM | Km (MDCK II/wt cells; read-out: Km, secretory (bisolateral to apical), BL to AP): 81.3 ± 14.6 µM | Pc carrier permeability, absorptive ([8]; AP to BL): 2.2 ± 0.5 cm/s × 10^5 | Pc carrier permeability, secretory ([8]; BL to AP): 4.1 ± 0.4 cm/s × 10^5

COc1cc([C@@H]2c3cc4c(cc3[C@@H](O[C@@H]3O[C@@H]5CO[C@@H](C)O[C@H]5[C@H](O)[C@H]3O)[C@H]3COC(=O)[C@H]23)OCO4)cc(OC)c1O [etoposide]
Km [9]: ~213 µM | decrease of CPT secretory permeability in the presence of inhibitor (Caco-2 cells [2]): 25.6% | reduction of CPT efflux permeability (Caco-2 cells [2]; etoposide 200 μM, CPT 10 μM): 1.3 fold

B1: human multidrug resistance protein 2 (MRP2) (ABCC2) (Homo sapiens) (protein)
chain: MLEKFCNSTFWNSSFLDSPEADLPLCFEQTVLVWIPLGYLWLLAPWQLLHVYKSRTKRSSTTKLYLAKQVFVGFLLILAAIELALVLTEDSGQATVPAVRYTNPSLYLGTWLLVLLIQYSRQWCVQKNSWFLSLFWILSILCGTFQFQTLIRTLLQGDNSNLAYSCLFFISYGFQILILIFSAFSENNESSNNPSSIASFLSSITYSWYDSIILKGYKRPLTLEDVWEVDEEMKTKTLVSKFETHMKRELQKARRALQRRQEKSSQQNSGARLPGLNKNQSQSQDALVLEDVEKKKKKSGTKKDVPKSWLMKALFKTFYMVLLKSFLLKLVNDIFTFVSPQLLKLLISFASDRDTYLWIGYLCAILLFTAALIQSFCLQCYFQLCFKLGVKVRTAIMASVYKKALTLSNLARKEYTVGETVNLMSVDAQKLMDVTNFMHMLWSSVLQIVLSIFFLWRELGPSVLAGVGVMVLVIPINAILSTKSKTIQVKNMKNKDKRLKIMNEILSGIKILKYFAWEPSFRDQVQNLRKKELKNLLAFSQLQCVVIFVFQLTPVLVSVVTFSVYVLVDSNNILDAQKAFTSITLFNILRFPLSMLPMMISSMLQASVSTERLEKYLGGDDLDTSAIRHDCNFDKAMQFSEASFTWEHDSEATVRDVNLDIMAGQLVAVIGPVGSGKSSLISAMLGEMENVHGHITIKGTTAYVPQQSWIQNGTIKDNILFGTEFNEKRYQQVLEACALLPDLEMLPGGDLAEIGEKGINLSGGQKQRISLARATYQNLDIYLLDDPLSAVDAHVGKHIFNKVLGPNGLLKGKTRLLVTHSMHFLPQVDEIVVLGNGTIVEKGSYSALLAKKGEFAKNLKTFLRHTGPEEEATVHDGSEEEDDDYGLISSVEEIPEDAASITMRRENSFRRTLSRSSRSNGRHLKSLRNSLKTRNVNSLKEDEELVKGQKLIKKEFIETGKVKFSIYLEYLQAIGLFSIFFIILAFVMNSVAFIGSNLWLSAWTSDSKIFNSTDYPASQRDMRVGVYGALGLAQGIFVFIAHFWSAFGFVHASNILHKQLLNNILRAPMRFFDTTPTGRIVNRFAGDISTVDDTLPQSLRSWITCFLGIISTLVMICMATPVFTIIVIPLGIIYVSVQMFYVSTSRQLRRLDSVTRSPIYSHFSETVSGLPVIRAFEHQQRFLKHNEVRIDTNQKCVFSWITSNRWLAIRLELVGNLTVFFSALMMVIYRDTLSGDTVGFVLSNALNITQTLNWLVRMTSEIETNIVAVERITEYTKVENEAPWVTDKRPPPDWPSKGKIQFNNYQVRYRPELDLVLRGITCDIGSMEKIGVVGRTGAGKSSLTNCLFRILEAAGGQIIIDGVDIASIGLHDLREKLTIIPQDPILFSGSLRMNLDPFNNYSDEEIWKALELAHLKSFVASLQLGLSHEVTEAGGNLSIGQRQLLCLGRALLRKSKILVLDEATAAVDLETDNLIQTTIQNEFAHCTVITIAHRLHTIMDSDKVMVLDNGKIIECGSPEELLQIPGPFYFMAKEAGIENVNSTKF
Km ([10]; AP to BL): 101.2 ± 17.8 µM | Km ([10]; BL to AP): 65.8 ± 6.7 µM
